Laboratory results reported in US6852538B1, “Nur-RE a response element which binds nur nuclear receptors and method of use therefor” (Institut de Recherches Cliniques de Montreal, priority 1996, dated 2005).
“Also recorded” adds a separate entry of the source. Ends that are not written are not given here.

Key:
[1] = system: rat POMC promoter (−480 to +63 bp); test: POMC promoter-luciferase reporter lipofected in AtT-20 cells; format: cell-based; settings: Dex 10^−7M
Experimental: (§1) Transfections in AtT-20 cells were performed by lipofection (lipofectin, Gibco) using exponentially growing AtT-20 cells (7.5×10^5) in 35 mm Petri dishes. Cells were grown in DMEM with 10% fetal calf serum stripped with dextran-coated charcoal. Cells and media were harvested 16 h after lipofection. Each sample for lipofection contained a total of 1.5 μg DNA, including 300 ng reporter plasmid, 300 ng RSV-GH as internal control, 100 ng of pCMX-Nur77 expression vector, and total DNA was completed to 1.5 μg with pSP64. The POMC promoter constructs were described previously (Therrien et al., 1991, Mol. Cell. Biol. 11:3492-3503; Therrien et al., 1993, Cell. Biol. 13:2342-2353.). In particular, the NurRE and nGRE linker scanning replacement mutations were described previously as mutants 3 and 15 in a series of promoter mutations (Therrien et al., 1991, supra). DO 11.10 cells were electroporated using a Biorad instruments at 250 V, 960 μFarad, and 10 μg each of reporter plasmid and expression vectors. CRH (10^−7M) and forskolin (10^−7M) were used at maximally active concentrations, and anti-CD3 (clone 145-2C11) was used at 1 μg/ml to coat dishes. The expression plasmid for the Nur77 dominant negative mutant was used at 3 μg/dish. Data are presented as the means ± SEM of 3 to 5 experiments each performed in duplicate. […]

Nur77 mRNA = test: Northern blot of Nur77 mRNA in AtT-20 cells; format: cell-based
Experimental: Total RNA (20 μg) extracted from AtT-20 cells was used in Northern blot experiments performed as described previously (Lamonerie et al., 1996, Genes Dev. 10:1284-1295).

Nur-RE [2] = test: NurRE-luc reporter cotransfection with Nur77 and GR in CV-1 cells; format: cell-based; settings: Dex 10^−7M, ratio 1/0
NBRE = test: NBRE-luc reporter, antagonism between Nur77 and Dex; format: cell-based; settings: data not shown
Experimental: Transfections in AtT-20 cells were performed by lipofection (Lipofectamine, Gibco) using exponentially growing AtT-20 cells (7.5×10^5) in 35 mm Petri dishes. Cells were grown in DMEM with 10% fetal calf serum stripped with dextrancoated charcoal (Drouin et al., 1976, Endocrinology 98:1528-1534). Cells and media were harvested 16 h after lipofection. Each sample for lipofection contained a total of 1.5 μg DNA, including 300 ng reporter plasmid, 300 ng RSV-GH as internal control, 100 ng of pCMX-Nur77 expression vector, and total DNA was completed to 1.5 μg with pSP64. Where indicated, CRH and Dex were added at 10^−7M. The POMC promoter constructs were described previously (Therrien et al., 1991, Mol. Cell. Biol. 11:3492-3503; Therrien et al., 1993, Mol. Cell. Biol. 13:2342-2353). In particular, the NurRE and nGRE linker scanning replacement mutations were described previously as mutants 3 and 15 in a series of promoter mutations (Therrien et al., 1991, supra). DO 11.10 cells ([…] in 0.35 ml SMEM) were electroporated using a Biorad instruments at 250 V, 960 μFarad, and 10 μq each of reporter plasmid and expression vectors. After electroporation, cells were plated in SMEM containing 5% fetal calf serum with or without 10^−7M Dex, antiCD3 (clone 145-2C11) was used at 1 μg/ml to coat dishes (Iwata et al., 1991, Eur. J. Pharmacol. 21:643-648). […]

Nur-RE [3] = test: NurRE-luc reporter (three copies of Nur-RE upstream of minimal POMC promoter) in AtT-20 cells; format: cell-based; settings: CRH 10^−7M
Experimental: as §1

[4] = biological target: Glucocorticoid receptor (GR) (UniProt P06536 P06536:1-795); test: EMSA; settings: tags: Promega TNT; label: 3'-end label (Klenow)
Sequence of Glucocorticoid receptor (GR) (P06536 whole entry, one chain of several): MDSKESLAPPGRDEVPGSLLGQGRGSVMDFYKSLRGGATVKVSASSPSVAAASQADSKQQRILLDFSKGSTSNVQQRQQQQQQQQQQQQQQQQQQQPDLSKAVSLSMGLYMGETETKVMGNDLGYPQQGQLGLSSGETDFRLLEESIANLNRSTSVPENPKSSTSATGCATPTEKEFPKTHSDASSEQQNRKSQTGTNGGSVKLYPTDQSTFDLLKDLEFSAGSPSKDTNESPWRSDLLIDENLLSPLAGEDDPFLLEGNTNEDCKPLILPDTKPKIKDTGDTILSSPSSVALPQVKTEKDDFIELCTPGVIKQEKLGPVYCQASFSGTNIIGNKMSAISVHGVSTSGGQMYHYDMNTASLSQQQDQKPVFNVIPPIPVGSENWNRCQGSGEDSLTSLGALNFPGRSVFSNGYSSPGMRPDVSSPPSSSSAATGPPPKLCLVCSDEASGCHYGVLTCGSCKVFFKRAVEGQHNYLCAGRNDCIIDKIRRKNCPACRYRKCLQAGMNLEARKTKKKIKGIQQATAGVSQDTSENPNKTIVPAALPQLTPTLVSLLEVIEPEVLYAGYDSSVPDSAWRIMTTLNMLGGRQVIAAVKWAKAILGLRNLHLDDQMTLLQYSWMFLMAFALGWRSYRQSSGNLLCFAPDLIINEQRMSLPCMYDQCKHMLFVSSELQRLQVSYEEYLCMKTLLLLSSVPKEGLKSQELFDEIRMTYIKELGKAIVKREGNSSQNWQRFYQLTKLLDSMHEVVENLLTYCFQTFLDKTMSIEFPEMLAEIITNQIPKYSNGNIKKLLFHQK

Nur77 (NGFI-B) [5] = biological target: T1, Nur77 (NGFI-B) (UniProt P12813 P12813:1-601); test: EMSA; binds as homodimer, apparently cooperative; DMS interference maps two inverted octamers 6 bp apart; settings: tags: Promega TNT SP6/T7, pCMX-Nur77; label: 3'-end label (Klenow)
T1 sequence (P12813 whole entry, one chain of several): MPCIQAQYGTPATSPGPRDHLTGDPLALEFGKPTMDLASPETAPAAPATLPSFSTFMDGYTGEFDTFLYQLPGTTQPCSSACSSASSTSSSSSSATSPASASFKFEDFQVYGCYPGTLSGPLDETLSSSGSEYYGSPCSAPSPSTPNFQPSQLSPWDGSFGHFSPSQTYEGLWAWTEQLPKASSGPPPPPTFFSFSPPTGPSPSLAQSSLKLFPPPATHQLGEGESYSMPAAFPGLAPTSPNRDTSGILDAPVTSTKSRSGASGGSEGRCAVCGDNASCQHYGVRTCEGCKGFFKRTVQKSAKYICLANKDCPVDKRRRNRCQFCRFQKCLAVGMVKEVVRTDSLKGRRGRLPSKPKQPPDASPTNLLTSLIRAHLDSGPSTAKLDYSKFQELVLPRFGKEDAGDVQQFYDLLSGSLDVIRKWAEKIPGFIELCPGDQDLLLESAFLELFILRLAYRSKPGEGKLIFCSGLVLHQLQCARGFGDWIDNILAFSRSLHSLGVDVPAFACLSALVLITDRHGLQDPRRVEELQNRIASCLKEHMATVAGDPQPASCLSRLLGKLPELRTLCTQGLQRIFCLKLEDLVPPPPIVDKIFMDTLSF
From the text: End-labeled coding (C) and non-coding (NC) strands of the Nur-RE were used for DMS interference of Nur77 binding. […] E) Binding of Nur77 to the wild-type and mutant Nur-RE. […] Methods. For gel retardation experiments, Nur-RE or NBRE oligonucleotides were 3'-end-labeled using Klenow polymerase and purified on polyacrilamide gels.
(§2) The interaction of Nur77 with Nur-RE was investigated directly in binding studies using in vitro translated Nur77.

Nur77 (NGFI-B) [6] = biological target: T1, Nur77 (NGFI-B); test: EMSA; binds as monomer; settings: tags: Promega TNT SP6/T7, pCMX-Nur77; label: 3'-end label (Klenow)
From the text: For gel retardation experiments, Nur-RE or NBRE oligonucleotides were 3'-end-labeled using Klenow polymerase and purified on polyacrilamide gels.
as §2

## C[C@@H]1C[C@H]2[C@@H]3CCC4=CC(=O)C=C[C@]4(C)[C@@]3(F)[C@@H](O)C[C@]2(C)[C@@]1(O)C(=O)CO [Dex, dexamethasone]
[1]
  magnitude of the repression of POMC promoter/luciferase reporter: 2- to 3 fold
Nur77 mRNA; Dex 10^−7M with CRH 10^−7M
  reduction of the CRH induction of Nur77 mRNA: about 50%
Nur-RE [2]
  effect on Nur77 activation at the NurRE in the absence of GR: no effect
NBRE
  magnitude of Nur77/Dex antagonism on NBRE-luc reporter relative to NurRE-luc: about 40 fold less

## Corticotropin Releasing Hormone (SEEPPISLDLTFHLLREVLEMARAEQLAQQAHSNRKLMEII; ends and bridges not checked; UniProt P06850 154-194, looked up) [CRH, hypothalamic hormone, major stimulus of pituitary ACTH secretion and of POMC transcription]
Nur-RE [3]
  response of Nur-RE reporter (oligomerized response element, construct 6) to CRH: greatly enhanced response
Nur77 mRNA; CRH 10^−7M
  induction of Nur77 mRNA/expression: rapidly Induced; also recorded: transient induction

B1: NurRE (POMC) (dsDNA)
DNA 1: GATCCTAGTGATATTTACCTCCAAATGCCAGGA
DNA 2: TCCTGGCATTTGGAGGTAAATATCACTAGGATC
[4]
  binding result: no binding
Nur77 (NGFI-B) [5]
  binding result: binds

B2: NBRE (dsDNA)
DNA 1: GATCCTCGTGCGAAAAGGTCAAGCGCTA
DNA 2: TAGCGCTTGACCTTTTCGCACGAGGATC
Nur77 (NGFI-B) [6]
  binding result: binds
